Data set [1] concerns the target C. neoformans Sgl1 (Cryptococcus neoformans var. grubii, UniProt J9W473). Nature of the data set: Kinetic evaluation of erg-glc and C6-NBD-GlcCer hydrolysis by Sgl1 (Triton X-100 mixed micelles, HPLC). It counts as biochemical. To be noted: for Km, Michaelis-Menten best-fit value / Vmax, Michaelis-Menten best-fit value, Turnover: source data Fig 1d; for KM: substrate of Sgl1, Triton X-100 mixed micelles, 37 °C. Here is the method:
A 50 μL volume of Cn Sgl1 wild type and 50 μL of mixed micelles of lipid and Triton X-100 in 50 mM Bis-Tris buffer with 150 mM NaCl, 5 mM βME, and 5 mM DTT were mixed and incubated at 37 °C for 10 min (erg-glc, Avanti Polar Lipids) and 1 h (C6-NBD-glcCer, Matreya). For the substrate erg-glc the amount of protein was 5 ng. 150 ng protein was used for reactions with C6-NBD-GlcCer. After the incubation period, each reaction was quenched with a 2:1 chloroform:methanol solution and the organic phase was collected and dried. Then, the lipid content was resuspended in 50 μL methanol and applied to HPLC (Agilent Technologies). Total erg-glc and ergosterol was detected using absorbance at 282 nm on a C-8 column with a flow rate of 0.5 ml/min in methanol/water 90:10 ratio buffered with 1 mM ammonium formate and 0.2% formic acid. A 85:15 ratio of the same eluent was used for C6-NBD-GlcCer and C6-NBD-ceramide monitoring the fluorescence at 470/530 nm excitation/emission. The total area of product was normalized by the total area of its respective substrate.

Data set [2] concerns human lung epithelial cancer cell line A549. To be noted: A549 cells, 24 h, MTT. Here is the method:
The cells were maintained in Dulbecco’s modified eagle medium containing 10% fetal bovine serum and 1% penicillin–streptomycin. At passage 11, 10^5 cells were transferred into each well of 96-well plates and cultured for 18–24 h for the cells to adhere to the well surface. After, the medium was removed and a fresh medium containing the selected compounds at a concentration range of 1–512 μM were added to the wells. Controls with equivalent serial concentrations of DMSO were also evaluated and compared with a control without DMSO. The plate was incubated at 37 °C with 5% CO2. After 24 h, the supernatant was removed and 50 μL of 5 mg/mL 3-(4,5-dimethylthiazol-2-yl)-2,5-diphenyltetrazoliumbromide (MTT) solution in phosphate-buffered saline (PBS) was added to each well. The plates were incubated for an additional 4 h and the formazan crystals formed inside the cell was dissolved by adding 50 μL DMSO.

The subject of data set [3] is C. neoformans Sgl1. Briefly: Resorufin-3β-D-glucopyranoside enzyme kinetic assay and HTS assay parameters. In kind it is biochemical, Cryptococcus neoformans. To be noted: for Picomol of resorufin produced: time 20 min, 8 replicates. As for the experimental part:
Resorufin-3β-D-glucopyranoside (res-glp, Sigma-Aldrich) enzyme kinetic assays were performed according to methods described by Urban et al.[16] with modifications. Reaction buffer contained 50 mM citric acid, 176 mM K2HPO4, pH 6, 0.01% Tween-20, and 10 mM sodium taurocholate. The reactions were carried out in black 96-well plates using 20 ng of enzyme with 100 μM res-glp substrate. In all, 10 μL/well of res-glp substrate was added to each well and the reaction was initiated by adding 20 μL enzyme (20 ng). After incubation at 37 °C for 30–40 min, the fluorescence was read at an excitation of 570 (±10) nm and an emission of 610 (±10) nm on a VersaMax™ Microplate Reader from Molecular Devices. A standard curve was prepared with serial dilutions of the free fluorophore, resorufin, in the same volume of assay buffer. All reactions were linear with respect to time and protein concentration and the pH, temperature, and dimethyl sulfoxide (DMSO) optimal tolerance was verified.
Supplementary Figure 6. High-throughput screening assay parameters. a. Resorufin 3β-D-glucopyranoside (res-glp) hydrolysis by Sgl1 releases the fluorescent product resorufin and glucose. b. Detection linearity of the system. c. Temperature evaluation of Sgl1 activity (n=6). d.
Reaction dependence on pH (n=4). e. DMSO tolerance (n=6). f. Enzyme concentration linearity (n=4). The reaction is linear up to 0.4 pmol of Sgl1 in presence of the substrate res-glp (100 µM). Data presented as mean values +/- SD of 2-3 independent experiments performed in duplicate (c-f). g.Time linearity until 50 min (n=4). h. Eight substrate concentrations tested with 0.2 pmol of Sgl1 until 20 min. i. Kinetic curve of Sgl1 (n=4). Error bars represent standard deviation of four independent experiments performed in technical duplicates. j. Kinetic parameters of Sgl1 reaction with res-glp.
(1 picture or pasted object on this page, not shown here)

Structures are written as SMILES. Where “and” joins values, the source holds several entries; their conditions need not be identical. Identical values can stand only once.

This is an account of results in publication PMC8497620, “Structure and inhibition of Cryptococcus neoformans sterylglucosidase to develop antifungal agents” (Nature Communications, 2021).

Sequence of C. neoformans Sgl1 (Cryptococcus neoformans var. grubii, UniProt J9W473) (J9W473 entry or part of it): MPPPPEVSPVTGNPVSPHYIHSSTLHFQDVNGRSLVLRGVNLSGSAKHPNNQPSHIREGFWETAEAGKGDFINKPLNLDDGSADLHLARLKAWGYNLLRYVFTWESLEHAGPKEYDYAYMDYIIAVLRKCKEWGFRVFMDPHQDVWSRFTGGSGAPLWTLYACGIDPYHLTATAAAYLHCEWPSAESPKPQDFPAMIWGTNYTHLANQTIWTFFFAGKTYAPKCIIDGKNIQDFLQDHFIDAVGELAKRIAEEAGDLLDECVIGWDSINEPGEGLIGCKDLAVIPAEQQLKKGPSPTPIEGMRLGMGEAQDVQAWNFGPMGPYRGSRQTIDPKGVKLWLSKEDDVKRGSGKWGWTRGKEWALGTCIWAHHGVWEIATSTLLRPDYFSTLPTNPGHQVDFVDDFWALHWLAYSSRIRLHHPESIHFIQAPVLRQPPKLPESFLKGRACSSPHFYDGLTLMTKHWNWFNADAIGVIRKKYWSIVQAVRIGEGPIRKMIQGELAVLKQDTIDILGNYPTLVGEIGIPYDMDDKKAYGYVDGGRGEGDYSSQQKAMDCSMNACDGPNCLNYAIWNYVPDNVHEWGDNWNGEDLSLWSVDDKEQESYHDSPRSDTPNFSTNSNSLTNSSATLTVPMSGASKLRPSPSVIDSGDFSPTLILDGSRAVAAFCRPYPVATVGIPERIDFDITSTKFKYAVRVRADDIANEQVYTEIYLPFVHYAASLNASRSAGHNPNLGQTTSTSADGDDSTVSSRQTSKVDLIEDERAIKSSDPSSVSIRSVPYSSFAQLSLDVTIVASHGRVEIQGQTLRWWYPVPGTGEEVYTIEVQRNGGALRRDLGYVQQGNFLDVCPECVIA

Take `CCCCCCCCCCCCCC=CC(O)C(COC1OC(CO)C(O)C(O)C1O)NC(=O)CCCCCNc1ccc([N+](=O)[O-])c2nonc12` (stereo not shown) [C6-NBD-GlcCer, C6-NBD-glucosylceramide]: the “Turnover (mol C6-NBD-Ceramide / sec/ mol enzyme)” value in data set [1] (0.3 mol% C6-NBD-GlcCer) was 0.0009 mol C6-NBD-Ceramide / sec/ mol enzyme and 0.0010 mol C6-NBD-Ceramide / sec/ mol enzyme; in data set [1] (0.7 mol% C6-NBD-GlcCer), 0.0024 mol C6-NBD-Ceramide / sec/ mol enzyme and 0.0025 mol C6-NBD-Ceramide / sec/ mol enzyme; in data set [1] (1.0 mol% C6-NBD-GlcCer) it was 0.0039 mol C6-NBD-Ceramide / sec/ mol enzyme and 0.0038 mol C6-NBD-Ceramide / sec/ mol enzyme; in data set [1] (1.5 mol% C6-NBD-GlcCer) it was 0.0051 mol C6-NBD-Ceramide / sec/ mol enzyme; in data set [1] (2.0 mol% C6-NBD-GlcCer) it was 0.0066 mol C6-NBD-Ceramide / sec/ mol enzyme and 0.0051 mol C6-NBD-Ceramide / sec/ mol enzyme; in data set [1] (2.5 mol% C6-NBD-GlcCer) it was 0.0073 mol C6-NBD-Ceramide / sec/ mol enzyme and 0.0067 mol C6-NBD-Ceramide / sec/ mol enzyme. The “Turnover (mol C6-NBD-Ceramide / sec/ mol enzyme)” value was 0.0085 mol C6-NBD-Ceramide / sec/ mol enzyme and 0.0080 mol C6-NBD-Ceramide / sec/ mol enzyme in data set [1] (3.0 mol% C6-NBD-GlcCer); 0.0076 mol C6-NBD-Ceramide / sec/ mol enzyme and 0.0074 mol C6-NBD-Ceramide / sec/ mol enzyme in data set [1] (3.5 mol% C6-NBD-GlcCer); 0.0074 mol C6-NBD-Ceramide / sec/ mol enzyme and 0.0082 mol C6-NBD-Ceramide / sec/ mol enzyme in data set [1] (4.0 mol% C6-NBD-GlcCer); 0.0064 mol C6-NBD-Ceramide / sec/ mol enzyme and 0.0070 mol C6-NBD-Ceramide / sec/ mol enzyme in data set [1] (4.5 mol% C6-NBD-GlcCer); 0.0075 mol C6-NBD-Ceramide / sec/ mol enzyme and 0.0072 mol C6-NBD-Ceramide / sec/ mol enzyme in data set [1] (5.0 mol% C6-NBD-GlcCer). In addition, the “Km, Michaelis-Menten best-fit value” in data set [1] was determined as 1.734 mol%. In data set [1], the “Vmax, Michaelis-Menten best-fit value, Turnover” value (“Vmax … Turnover” below) came to 0.01082 s⁻¹. The KM in data set [1] is given as 1.73 ± 0.37 mol%.
As for `Cc1ccsc1CN(CCN(C)C)Cc1ccc2nonc2c1` [Hit 10], the “LD50 (lethal dose 50)” value in data set [2] stood at 301.8 µM.
Regarding `O=c1ccc2nc3ccc(O[C@@H]4O[C@H](CO)[C@@H](O)[C@H](O)[C@H]4O)cc3oc-2c1` [Resorufin 3β-D-glp, resorufin-3β-D-glucopyranoside, reference compound], the “Turnover, min-1 (Mean)” value worked out at 0.1166 min⁻¹ in data set [3] (0.8 µM Resorufin 3β-D-glp); 0.2022 min⁻¹ in data set [3] (1.6 µM Resorufin 3β-D-glp); 0.2828 min⁻¹ in data set [3] (3.125 µM Resorufin 3β-D-glp); 0.5182 min⁻¹ in data set [3] (6.25 µM Resorufin 3β-D-glp); 0.7736 min⁻¹ in data set [3] (12.5 µM Resorufin 3β-D-glp); 1.399 min⁻¹ in data set [3] (25 µM Resorufin 3β-D-glp). Further, the “Turnover, min-1 (Mean)” value was determined as 2.307 min⁻¹ in data set [3] (50 µM Resorufin 3β-D-glp) and 3.899 min⁻¹ in data set [3] (100 µM Resorufin 3β-D-glp). In addition, the “Vmax … Turnover” value in data set [3] (res-glp as Sgl1 substrate, source data Fig S6i) stood at 9.522 min⁻¹. Moreover, the Km in data set [3] (res-glp as Sgl1 substrate, source data Fig S6i, read-out: Km, Michaelis-Menten best-fit value) amounted to 147 µM.
`CC(C)[C@@H](C)/C=C/[C@@H](C)[C@H]1CC[C@H]2C3=CC=C4C[C@@H](O[C@@H]5O[C@H](CO)[C@@H](O)[C@H](O)[C@H]5O)CC[C@]4(C)[C@H]3CC[C@]12C` [erg-glc, ergosterol 3β-D-glucoside]: the “Turnover (mol ergosterol / sec/ mol enzyme)” value in data set [1] (0.07 mol% Erg-glc) is 0.1064 mol ergosterol / sec/ mol enzyme and 0.1082 mol ergosterol / sec/ mol enzyme; in data set [1] (0.10 mol% Erg-glc) it was 0.1849 mol ergosterol / sec/ mol enzyme and 0.1742 mol ergosterol / sec/ mol enzyme; in data set [1] (0.20 mol% Erg-glc), 0.3045 mol ergosterol / sec/ mol enzyme and 0.2862 mol ergosterol / sec/ mol enzyme; in data set [1] (0.50 mol% Erg-glc), 0.4688 mol ergosterol / sec/ mol enzyme and 0.4091 mol ergosterol / sec/ mol enzyme; in data set [1] (0.90 mol% Erg-glc), 0.6080 mol ergosterol / sec/ mol enzyme and 0.5033 mol ergosterol / sec/ mol enzyme; in data set [1] (1.20 mol% Erg-glc), 0.5944 mol ergosterol / sec/ mol enzyme and 0.5189 mol ergosterol / sec/ mol enzyme. For the same molecule, the “Turnover (mol ergosterol / sec/ mol enzyme)” value in data set [1] (2.00 mol% Erg-glc) was 0.6438 mol ergosterol / sec/ mol enzyme and 0.6016 mol ergosterol / sec/ mol enzyme. Further, the “Km, Michaelis-Menten best-fit value” in data set [1] was found to be 0.3118 mol%. In addition, in data set [1], the “Vmax … Turnover” value stood at 0.721 s⁻¹. Further, in data set [1], the KM was 0.31 ± 0.04 mol%.
For the molecule `O=c1ccc2nc3ccc(O)cc3oc-2c1` [resorufin], the “Picomol of resorufin produced” value in data set [3] (substrate concentration 0.8 µM) is 13.6869 Picomol and 10.2624 Picomol and 15.333 Picomol and 8.2899 Picomol and 7.897 Picomol and 8.1513 Picomol and 7.834 Picomol and 9.766 Picomol; in data set [3] (substrate concentration 1.6 µM), 22.652 Picomol and 16.8084 Picomol and 22.0089 Picomol and 13.8077 Picomol and 14.311 Picomol and 13.7411 Picomol and 16.5589 Picomol and 17.8661 Picomol; in data set [3] (substrate concentration 3.125 µM) it was 38.3651 Picomol and 20.7516 Picomol and 22.1703 Picomol and 24.2149 Picomol and 22.4235 Picomol and 18.9404 Picomol and 21.8512 Picomol and 25.5122 Picomol; in data set [3] (substrate concentration 6.25 µM), 43.9839 Picomol and 34.2216 Picomol and 50.5101 Picomol and 33.7929 Picomol and 44.5629 Picomol and 40.9973 Picomol and 53.26 Picomol and 50.9019 Picomol; in data set [3] (substrate concentration 12.5 µM), 71.213 Picomol and 36.0642 Picomol and 41.6688 Picomol and 71.5524 Picomol and 70.9838 Picomol and 75.8794 Picomol and 76.3919 Picomol and 81.7237 Picomol; in data set [3] (substrate concentration 25 µM) it was 72.1659 Picomol and 113.232 Picomol and 127.381 Picomol and 122.744 Picomol and 134.032 Picomol and 119.303 Picomol and 123.078 Picomol and 139.365 Picomol. For the same molecule, the “Picomol of resorufin produced” value is 180.011 Picomol and 203.084 Picomol and 186.676 Picomol and 209.238 Picomol and 194.059 Picomol and 207.198 Picomol and 188.267 Picomol and 183.529 Picomol in data set [3] (substrate concentration 50 µM); 305.03 Picomol and 313.72 Picomol and 318.728 Picomol and 338.834 Picomol and 336.378 Picomol and 332.942 Picomol and 323.184 Picomol and 353.074 Picomol in data set [3] (substrate concentration 100 µM).

Broadly, the Km is the substrate concentration at which the rate is half of its maximum.
